Test results from patent US20050106639A1, “Method for quantification of AKT protein expression” (Ventana Medical Systems, Inc., priority 2000, published 2005).

Tests used:
Format in all cases: cell-based
AKT-2 = experiment: Immunoprecipitation and anti-phospho-Akt Western blot, AKT-2
Procedure: (§1) MDA-MB-435 and MDA-MB-435/HER-2 cells were obtained from Dr. Yu at the UTMD Anderson Cancer Center, Houston, Tex. Cells were grown in RPMI 1640 supplemented as above in 8% CO2 at 37° C. Western blotting was done as follows. Cells were lysed in lysis buffer (50 mM Tris-HCl, pH 7.4, 150 mM sodium chloride, 1 mM EDTA, 1% Nonidet P-40, 1 mM sodium orthovanadate, 1 mM sodium fluoride, 1 mM phenylmethylsulfonyl fluoride, 2 ug/ml pepstatin, 2 ug/ml leupeptin, 2 ug/ml aprotinin), centrifuged at 4° C. for 5 min at 6500 g, and protein concentration was determined with a BioRad Protein Assay Kit (BioRad, Hercules, Cailf.). Proteins were separated by electrophoresis using a Bis-Tris NuPAGE system with 1× MOPS running buffer (Novex, San Diego, Cailf.) and transferred to Hybond C-extra membrane (Amersham Pharmacia Biotech, Piscataway, N.J.). Membranes were blocked with non-fat dry milk, incubated with the appropriate antibodies, washed with PBS (phosphate buffered saline) and incubated with horseradish peroxidase-conjugated secondary antibody. […]
(§2) The activated (phosphorylated) state of total AKT (AKT-1 plus AKT-2) in cells over-expressing HER-2/neu was measured to study the functional significance of c-akt in HER-2/neu over-expressing cells and cancers. […] Activated AKT was determined by antibodies that specifically recognize the phosphorylated state of AKT protein. […]

[1] = tested on: total AKT (AKT-1 plus AKT-2); experiment: Western blot of activated (phosphorylated) total AKT in HER-2/neu over-expressing cells; conditions: SKBR3, BR474, AU565 cells, Heregulin 10 ng/ml or Herceptin 20 mg/ml
Procedure: as §1, §2

AKT-1 = experiment: Immunoprecipitation and anti-phospho-Akt Western blot, AKT-1
Procedure: as §1, §2

[2] = SKBR3, BR474, AU565 cells, Heregulin 10 ng/ml or Herceptin 20 mg/ml, Western blot

Heregulin
level of AKT-2 phosphorylation after treatment (AKT-2; [2]): remained high
phosphorylated state of AKT-2 (AKT-2; exposure for 3 days): did not affect
phosphorylation of total AKT [1]: increased
AKT-1 phosphorylation (AKT-1; [2]): increased
phosphorylated state of AKT-1 (AKT-1; exposure for 3 days): down-regulation
